# Measurements taken from patent US11529350B2, “Tyrosine kinase non-receptor 1 (TNK1) inhibitors and uses thereof” (Sumitomo Pharma Oncology, Inc., priority 2019, dated 2022).
# What was measured:
# [1] = system: L540 xenografts; experiment: In vivo efficacy study in subcutaneous L540 Hodgkin's lymphoma CDX model; details: for tumor growth inhibition: oral gavage daily for 21 days
# Description: An efficacy study was performed using Example No. 13 in a L540 CDX mouse model. Animals were NOD-SCID (#394) female mice 6-8 weeks of age from Charles River Laboratories (CRL). Example No. 13 was formulated weekly using Tween 80:Ethanol:PEG400:Water (2:10:30:58 v/v) as a vehicle. There were four treatment groups (n=10, 40 animals in total): a vehicle/control group, a group treated with 10 mg/kg Example No. 13, a group treated with 25 mg/kg Example No. 13 and a group treated with 50 mg/kg Example No. 13. When the average tumor volume reached 80-120 mm^3, animals were randomized and dosed daily for 21 days via oral gavage, 10 ml/kg dose volume. […] No tissues were collected. IDEXX pathogen test was performed prior to the cell culture; Corynebacterium bovis, Corynebacterium sp. (HAC2), EBV, HCMV, Hepatitis B, Hepatitis C, HIV1, HIV2, HPV16, HPV18, HTLV1, HTLV2, LDEV, and Mycoplasma sp. were tested, and all results were negative. Tumor volume measurements are provided as mean absolute tumor volume +/−SEM.
# [2] = system: TNK1 and STAT5 phosphorylation in L540 tumor tissue; experiment: In vivo single dose PD study, L540 xenograft, Western blot; set-up: species or system mouse; details: L540 tumor samples, 50 mg/kg
# Description: The objective of this study was to assess in vivo pharmacodynamic activity of Example No. 13 in a subcutaneous xenograft model of Hodgkin's lymphoma in female NOD SCID mice, aged 6-8 weeks. There were 4 groups (and a total of 84 mice): Example No. 13 at 50 mg/kg, 25 mg/kg, or 10 mg/kg (n=27 mice for each dose), and vehicle (n=3 mice). When the average tumor volume reached 300 mm^3, animals were randomized and dosed once p.o. at a 10 mL/kg dose volume. Blood and tumors were collected at nine different time points.
# Example No. 13 was formulated in Tween 80 (0.2 mL), ethanol (1 mL), PEG400 (3 mL), and water (5.8 mL).
# In this study, protein expression was analyzed by Western blotting method. Tissue samples were acquired as part of a single dose PK/PD study. Equal amounts of tumor were placed into a bead tube, lysis buffer (RIPA buffer (Sigma No. 0278), Halt CocktaiL (ThermoFisher No. 78440), EDTA (ThermoFisher No. 1861274), PhosSTOP (Sigma No. 04906845001), cOmplete (Sigma No. 11697498001) and Inhibitor Cocktail 3 (Sigma No. P0044-1ML)) was added, and samples were homogenized using bead homogenizer (2×20 s at 4.5 m/s (Fisherbrand Bead Mill 24 Homogenizer, Fisher Scientific)). […]
# Protein concentration was determined using BCA kit (Invitrogen No. 23225). Equal amounts of protein were pooled from each treatment group, and concentration was measured again in the pooled samples. […]
# [3] = system: A549 cells; experiment: Combination with bortezomib, A549 cell confluency (Incucyte); format: cell-based; details: Example No. 13 10 nM + Bortezomib 1 nM, over 200 hours
# Description: A549 cells were seeded in log phase (e.g., at 40-60% confluency) in a well plate. Drug treatments were: no drug treatment, DMSO, bortezomib at 50 nM, 10 nM, 5 nM, 2 nM or 1 nM, Example No. 13 at 10 nM, and bortezomib 50 nM, 10 nM, 5 nM, 2 nM or 1 nM combined with Example No. 13 at 10 nM. The DMSO concentrations were kept constant (including DMSO control) to control for any confounding DMSO toxicity.
# Drug addition protocol: On day 1, cells were seeded at 60,000 cells/well, and incubated for 24 hours to allow adherence. On day 2, media was aspirated and replaced with 500 μl of the drug media preparations described below in correlating wells. The plates were placed in Incucyte for 7-14 days, and cell confluency was measured every 2 hours. […]
smiles,measurement,setting,value
"COc1cc(N2CCN(C)CC2)c(Cl)cc1Nc1ncc(Cl)c(Nc2cccnc2N2CCCC2=O)n1 [Example No. 13, 1-(3-((5-chloro-2-((5-chloro-2-methoxy-4-(4-methylpiperazin-1-yl)phenyl)amino)pyrimidin-4-yl)amino)pyridin-2-yl)pyrrolidin-2-one]",tumor growth inhibition,"[1]; 10 mg/kg, at Day 21",35.17%
same,tumor growth inhibition,"[1]; 25 mg/kg, at Day 31",74.20%
same,body weight loss,[1]; 50 mg/kg,moderate
same,"animals found dead on Day 7, possibly due to drug toxicity",[1]; 50 mg/kg group (n=10),Two
same,tumor growth inhibition,"[1]; 50 mg/kg, at Day 31",86.5%
same,continued tumor growth inhibition post-dosing,"[1]; 25 and 50 mg/kg, dosing stopped on day 21",up to 10 days
same,earliest time at which inhibition of STAT5 phosphorylation was observed after dosing,[2],15 to 30 min
same,"cell growth inhibition, combination",[3],approximately 50%
